In patent publication US9018211B2, “Inhibitors of the renal outer medullary potassium channel” (Merck Sharp & Dohme Corp., priority 2009, dated 2015):

Experiments:
Format in all cases: cell-based
[1] = molecular target: hROMK1 (Kir1.1) (Homo sapiens (Human), UniProt P48048); experiment: 86Rb+ Efflux Assay; settings: CHO-DHFR- cells stably expressing hROMK1; 35 min incubation
Procedure: (§1) Several assays may be used to measure functional inhibition of the ROMK channel by compounds of the instant invention. One primary assay that can be used is a functional ^86Rb^+ efflux assay that measures the ability of ROMK to permeate ^86Rb^+, in the absence or presence of test compound. Under control conditions, cells loaded with ^86Rb^+ and incubated in Rb^+-free medium display a time-dependent efflux of the isotope, the rate of which depends on number of functional channels. […] This assay has been established with cell lines expressing either human, rat or dog ROMK channels, and can operate in 96- or 384-well format. Importantly, the human, rat, and dog ^86Rb^+ efflux assays can be carried out in the presence of up to 100% serum allowing, therefore, an accurate estimation of the effect of protein binding on the inhibitory activity of compounds of interest. Another ROMK functional assay makes use of the ability of thallium to permeate through open ROMK channels and increase the fluorescence of a dye previously loaded into the cells. Under control conditions, cells loaded with dye and exposed to thallium-containing medium display a time-dependent increase in fluorescence, the rate of which depends on number of functional channels. When cells are incubated in the presence of a channel inhibitor, the increase in fluorescence is attenuated in a concentration-dependent manner, and IC50 values of inhibition by compounds can be accurately determined. This assay has been established with cell lines expressing either human, or rat ROMK channels, and operates in 384-well format. Another assay for evaluation of the compounds of the instant invention and for evaluation of mechanism of action of compounds of Formula I relies on the measurement of the electrical current that is generated as potassium permeates through the channel. For these electrophysiological experiments, three different platforms, IonWorks, QPatch, or manual patch clamp, are used, depending on the experimental protocol under consideration. IonWorks operates in a 384-well format and allows accurate determination of IC50 values for inhibitors.

[2] = molecular target: Kir1.1 (ROMK1) (Homo sapiens (Human), UniProt P48048); experiment: ROMK Electrophysiology Assay (IonWorks Quattro whole cell voltage clamp); settings: Chinese hamster ovary cells stably expressing Kir1.1; block at voltage step to 0 mV, 6 min compound incubation
Procedure: as §1
Chinese hamster ovary cells stably expressing Kir1.1 channels were maintained in T-75 flasks in cell culture media in a humidified 10% CO2 incubator at 37° C. Prior to an experiment, Kir1.1 expression was induced by overnight incubation with 1 mM sodium butyrate. […] After centrifugation, the cell pellet was resuspended in approximately 4.0 ml of bath solution and placed in the IonWorks instrument. The intracellular solution consisted of (in mM): 80 K gluconate, 40 KCl, 20 KF, 3.2 MgCl2, 3 EGTA, 5 Hepes, pH 7.4. […] Current amplitudes were measured using the IonWorks software.

[3] = molecular target: hROMK (hKir1.1) (Homo sapiens (Human), UniProt P48048); experiment: Thallium Flux Assay; settings: HEK293 cells stably expressing hROMK; FLIPR-Tetra, 30 min incubation
Procedure: as §1
To dislodge the cell, gently bang the side of the flask with your hand. […] Centrifuge at 1,500 rpm for 6 min followed by resuspension in complete growth media and determine cell concentration. […] Under ideal growth conditions and appropriate tissue culture practices, this cell line is stable for 40-45 passages.
FluxOR Kit Components (Invitrogen F10017)
• FluxOR™ Reagent (Component A) • FluxOR™ Assay Buffer (Component B)—10× Concentrate • PowerLoad™ Concentrate (Component C)—100× Concentrate • Probenecid (Component D)—Lyophilized sample is kept at −20° C. Water soluble, 100× after solubilization in 1 ml water. […] Store at 4° C. • Thallium sulfate (Tl2SO4) Concentrate (Component G)—50 mM in water. […] Can be stored at room temperature • Stimulant Buffer (prepared at 5× final concentration in 1× FluxOR™ Chloride-Free Buffer): 7.5 mM Thallium sulfate and 0.75 mM Potassium sulfate (to give a final assay concentration of 3 mM Thallium/0.3 mM Potassium). Store at 4° C. when not in use. If kept sterile, this solution is good for months.

Sequence of Kir1.1 (ROMK1) (P48048 whole entry, species assumed): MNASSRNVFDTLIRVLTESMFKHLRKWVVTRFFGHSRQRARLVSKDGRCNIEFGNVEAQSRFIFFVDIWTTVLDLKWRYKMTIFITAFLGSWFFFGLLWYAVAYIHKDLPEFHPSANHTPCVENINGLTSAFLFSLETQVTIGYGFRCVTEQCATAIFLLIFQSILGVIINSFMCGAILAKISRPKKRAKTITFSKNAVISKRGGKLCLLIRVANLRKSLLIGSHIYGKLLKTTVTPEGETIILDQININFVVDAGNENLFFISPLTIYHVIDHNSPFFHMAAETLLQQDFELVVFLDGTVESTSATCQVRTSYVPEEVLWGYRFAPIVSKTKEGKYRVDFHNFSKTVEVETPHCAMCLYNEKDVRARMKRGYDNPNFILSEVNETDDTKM
Sequence of hROMK (hKir1.1) (P48048 whole entry): as the sequence (P48048 whole entry, species assumed) above
Sequence of hROMK1 (Kir1.1) (P48048 whole entry): as the sequence (P48048 whole entry, species assumed) above

Structure (SMILES): Cc1c(C(O)CN2CCN(CC3CCc4c3ccc(F)c4C#N)CC2)ccc2c1COC2=O (centres unmarked) [Example 55, 5-fluoro-1-({4-[2-hydroxy-2-(4-methyl-1-oxo-1,3-dihydro-2-benzofuran-5-yl)ethyl]piperazin-1-yl}methyl)-2,3-dihydro-1H-indene-4-carbonitrile]
- IC50 [1]: 47 nM
- IC50 [2]: 23 nM
- IC50 [3]: 15 nM

Structure (SMILES): O=C1OCc2c1ccc(C(O)CN1CCN(CC(O)c3ccc4c(c3Cl)COC4=O)CC1)c2Cl (centres unmarked) [Example 5]
- IC50 [1]: 88 nM
- IC50 [2]: 7 nM
- IC50 [3]: 13 nM

Structure (SMILES): Cc1c(C(O)CN2CCN(CC3CCc4c3ccc3c4COC3=O)CC2)ccc2c1COC2=O (centres unmarked) [Example 20, 6-({4-[2-hydroxy-2-(4-methyl-1-oxo-1,3-dihydro-2-benzofuran-5-yl)ethyl]piperazin-1-yl}methyl)-1,6,7,8-tetrahydro-3H-indeno[4,5-c]furan-3-one]
- IC50 [1]: 36 nM
- IC50 [2]: 14 nM
- IC50 [3]: 7 nM

Structure (SMILES): COc1cc(C(O)CN2CCN(CCc3ccc4c(c3C)COC4=O)CC2)c(F)cc1C#N (centres unmarked) [Example 24, 5-fluoro-4-(1-hydroxy-2-{4-[2-(4-methyl-1-oxo-1,3-dihydro-2-benzofuran-5-yl)ethyl]piperazin-1-yl}ethyl)-2-(methyloxy)benzonitrile]
- IC50 [1]: 130 nM
- IC50 [3]: 26 nM

Structure (SMILES): Cc1c(CCN2CCN(CC(O)c3ccc4c(c3C)COC4=O)CC2)ccc2c1COC2=O (centres unmarked) [Example 12, 5-(1-hydroxy-2-{4-[2-(4-methyl-1-oxo-1,3-dihydro-2-benzofuran-5-yl)ethyl]piperazine-1-yl}ethyl)-4-methyl-2-benzofuran-1(3H)-one]
- IC50 [1]: 46 nM
- IC50 [2]: 13 nM
- IC50 [3]: 6 nM
